Holding throughout (design): expressed in transfected cells; host or cells: HEK-293
The target in experiment [1] is T1, SERT (Homo sapiens, UniProt P31645). Put plainly: hSERT neurotransmitter uptake assay (3H-5-HT). The class given is cell-based. The note with it: serotonin reuptake inhibition, HEK-293 hSERT cells, 3H-5-HT (no asterisk); for IC50: read-out: SERT pIC50 (converted). The procedure:
(§1) Neurotransmitter uptake assays were used to measure inhibition of ^3H-serotonin (^3H-5-HT), ^3H-norepinephrine (^3H-NE), and ^3H-dopamine (^3H-DA) uptake into cells expressing the respective transporter (hSERT, hNET or hDAT) in order to determine the pIC50 values of test compounds at the transporters.
(§2) HEK-293 derived cell lines stably-transfected with hSERT, hNET, or hDAT, respectively, were grown in DMEM medium supplemented with 10% dialyzed FBS (for hSERT) or FBS (for hNET and hDAT), 100 μg/ml penicillin, 100 μg/ml streptomycin, 2 mM L-glutamine and 250 μg/ml of the aminoglycoside antibiotic G418 (for hSERT and hNET) or 800 ug/ml (for hDAT), in a 5% CO2 humidified incubator at 37° C. When cultures reached 80% confluence, the cells were washed thoroughly in PBS (without Ca^2+ and Mg^2+) and lifted with 5 mM EDTA in PBS. Cells were harvested by centrifugation at 1100 rpm for 5 minutes, washed once by resuspension in PBS, then centrifuged. The supernatant was discarded and the cell pellet resuspended, by gentle trituration, in room temperature Krebs-Ringer bicarbonate buffer containing HEPES (10 mM), CaCl2 (2.2 mM), ascorbic acid (200 μM) and pargyline (200 μM), pH 7.4. The final concentration of cells in the cell suspension was 7.5×10^4 cells/ml, 1.25×10^5 cells/ml, and 5.0×10^4 cells/ml for SERT, NET, and DAT cell lines, respectively.
(§3) Neurotransmitter uptake assays were performed in a 96-well assay plate in a total volume of 400 μl assay buffer (Krebs-Ringer bicarbonate buffer containing HEPES (10 mM), CaCl2 (2.2 mM), ascorbic acid (200 μM) and pargyline (200 μM), pH 7.4) with 1.5×10^4 and 2.5×10^4 cells, for SERT, NET, and DAT, respectively. […] Stock solutions (10 mM in DMSO) of test compound were prepared and serial dilutions prepared using 50 mM Tris-HCl, 120 mM NaCl, 5 mM KCl, pH 7.4, 0.1% BSA, 400 μM ascorbic acid. Test compounds were incubated for 30 minutes at 37° C. with the respective cells, prior to addition of radiolabeled neurotransmitter, ^3H-5-HT (20 nM final concentration), ^3H-NE (50 nM final concentration) or ^3H-DA (100 nM final concentration). Non-specific neurotransmitter uptake was determined in the presence of 2.5 μM duloxetine, 2.5 μM desipramine, or 10 uM GBR-12909 (each in Dilution Buffer) for the hSERT, hNET, or hDAT assays, respectively.
(§4) Following a 10 minute incubation, at 37° C., with radioligand, the cells were harvested by rapid filtration over a 96-well UniFilter GF/B plate, pretreated with 1% BSA, and washed 6 times with 650 μl wash buffer (ice cold PBS). Plates were dried overnight at 37° C., ˜45 μl of MicroScint™-20 (Perkin Elmer) added and incorporated radioactivity quantitated via liquid scintillation spectroscopy Inhibition curves were analyzed using GraphPad Prism Software package (GraphPad Software, Inc., San Diego, Calif.). IC50 values were generated from concentration response curves using the Sigmoidal Dose Response (variable slope) algorithm in Prism GraphPad.

Experiment [2] addresses T2, NET (Homo sapiens, UniProt P23975). As to the kind of experiment: hNET neurotransmitter uptake assay (3H-NE). Particulars: norepinephrine reuptake inhibition, HEK-293 hNET cells, 3H-NE (no asterisk); for IC50: read-out: NET pIC50 (converted). It is filed as cell-based. How it is done:
as §1, §2, §3, §4

For experiment [3], the target named is T1, SERT. As to the kind of experiment: hSERT membrane radioligand binding assay (3H-citalopram). Particulars: hSERT membranes (HEK-293), 1.0 nM 3H-citalopram; for Ki: read-out: SERT pKi (converted). How it is done: (§5) Membrane radioligand binding assays were used to measure inhibition of labeled ligand (^3H-citalopram or ^3H-nisoxetine or ^3H-WIN35428) binding to membranes prepared from cells expressing the respective human recombinant transporter (hSERT or hNET or hDAT) in order to determine the pKi values of test compounds at the transporters.
(§6) Recombinant human embryonic kidney (HEK-293) derived cell lines stably transfected with hSERT or hNET, respectively, were grown in DMEM medium supplemented with 10% dialyzed FBS (for hSERT) or FBS (for hNET), 100 μg/ml penicillin, 100 μg/ml streptomycin, 2 mM L-glutamine and 250 μg/ml of the aminoglycoside antibiotic G418, in a 5% CO2 humidified incubator at 37° C. When cultures reached 80% confluence, the cells were washed thoroughly in PBS (without Ca^2+ and Mg^2+) and lifted with 5 mM EDTA in PBS. Cells were pelleted by centrifugation, resuspended in lysis buffer (10 mM Tris-HCl, pH7.5 containing 1 mM EDTA), homogenized, pelleted by centrifugation, then resuspended in 50 mM Tris-HCl, pH 7.5 and 10% sucrose at 4° C. Protein concentration of the membrane suspension was determined using a Bio-Rad Bradford Protein Assay kit. Membranes were snap frozen and stored at −80° C. Chinese hamster ovary membranes expressing hDAT (CHO-DAT) were purchased from PerkinElmer and stored at −80° C.
(§7) Binding assays were performed in a 96-well assay plate in a total volume of 200 μl assay buffer (50 mM Tris-HCl, 120 mM NaCl, 5 mM KCl, pH 7.4) with 0.5, 1, and 3 μg membrane protein, for SERT, NET and DAT, respectively.
(§8) Stock solutions (10 mM in DMSO) of test compound were prepared and serial dilutions made using Dilution Buffer (50 mM Tris-HCl, 120 mM NaCl, 5 mM KCl, pH 7.4, 0.1% BSA, 400 μM ascorbic acid). Non-specific radioligand binding was determined in the presence of 1 μM duloxetine, 1 μM desipramine or 10 μM GBR12909 (each in Dilution Buffer) for the hSERT, hNET or hDAT assays, respectively.
(§9) Following a 60 minute incubation at 22° C. (or a period sufficient to reach equilibrium), the membranes were harvested by rapid filtration over a 96-well UniFilter GF/B plate, pretreated with 0.3% polyethyleneimine, and washed 6 times with […] (50 mM Tris-HCl, 0.9% NaCl, pH 7.5 at 4° C.). Plates were dried overnight at room temperature, approximately […] of MicroScint™-20 (Perkin Elmer) added and bound radioactivity quantitated via liquid scintillation spectroscopy. Inhibition curves and saturation isotherms were analyzed using GraphPad Prism Software package (GraphPad Software, Inc., San Diego, Calif.). IC50 values were generated from concentration response curves using the Sigmoidal Dose Response (variable slope) algorithm in Prism GraphPad. Kd and Bmax values for the radioligand were generated from saturation isotherms using the Saturation Binding Global Fit algorithm in Prism GraphPad. pKi (negative decadic logarithm of Ki) values for test compounds were calculated from the best-fit IC50 values, and the Kd value of the radioligand, using the Cheng-Prusoff equation (Cheng & Prusoff (1973) Biochem. Pharmacol. 22(23):3099-3108): Ki=IC50/(1+[L]/Kd), where [L]=concentration radioligand.

Experiment [4] concerns the target T2, NET. As to the kind of experiment: hNET membrane radioligand binding assay (3H-nisoxetine). The note with it: hNET membranes (HEK-293), 1.0 nM 3H-nisoxetine; for Ki: read-out: NET pKi (converted). The procedure: as §5, §6, §7, §8, §9

T2 sequence (P23975 whole entry): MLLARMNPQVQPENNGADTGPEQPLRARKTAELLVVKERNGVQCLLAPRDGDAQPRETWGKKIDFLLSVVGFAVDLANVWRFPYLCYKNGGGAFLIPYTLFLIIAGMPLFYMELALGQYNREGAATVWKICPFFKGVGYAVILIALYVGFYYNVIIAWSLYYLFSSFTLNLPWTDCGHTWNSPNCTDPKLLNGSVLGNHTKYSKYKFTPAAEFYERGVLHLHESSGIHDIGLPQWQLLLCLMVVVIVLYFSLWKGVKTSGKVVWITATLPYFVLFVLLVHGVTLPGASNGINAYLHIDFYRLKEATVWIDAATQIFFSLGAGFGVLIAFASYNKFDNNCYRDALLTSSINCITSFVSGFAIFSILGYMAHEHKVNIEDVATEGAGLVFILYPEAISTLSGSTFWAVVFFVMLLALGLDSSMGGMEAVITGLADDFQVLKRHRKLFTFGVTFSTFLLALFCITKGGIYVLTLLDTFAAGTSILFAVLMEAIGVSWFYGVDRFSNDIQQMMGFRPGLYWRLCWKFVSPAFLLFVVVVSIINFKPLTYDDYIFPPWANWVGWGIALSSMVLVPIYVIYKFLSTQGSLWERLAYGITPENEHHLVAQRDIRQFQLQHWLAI
T1 sequence (P31645 whole entry): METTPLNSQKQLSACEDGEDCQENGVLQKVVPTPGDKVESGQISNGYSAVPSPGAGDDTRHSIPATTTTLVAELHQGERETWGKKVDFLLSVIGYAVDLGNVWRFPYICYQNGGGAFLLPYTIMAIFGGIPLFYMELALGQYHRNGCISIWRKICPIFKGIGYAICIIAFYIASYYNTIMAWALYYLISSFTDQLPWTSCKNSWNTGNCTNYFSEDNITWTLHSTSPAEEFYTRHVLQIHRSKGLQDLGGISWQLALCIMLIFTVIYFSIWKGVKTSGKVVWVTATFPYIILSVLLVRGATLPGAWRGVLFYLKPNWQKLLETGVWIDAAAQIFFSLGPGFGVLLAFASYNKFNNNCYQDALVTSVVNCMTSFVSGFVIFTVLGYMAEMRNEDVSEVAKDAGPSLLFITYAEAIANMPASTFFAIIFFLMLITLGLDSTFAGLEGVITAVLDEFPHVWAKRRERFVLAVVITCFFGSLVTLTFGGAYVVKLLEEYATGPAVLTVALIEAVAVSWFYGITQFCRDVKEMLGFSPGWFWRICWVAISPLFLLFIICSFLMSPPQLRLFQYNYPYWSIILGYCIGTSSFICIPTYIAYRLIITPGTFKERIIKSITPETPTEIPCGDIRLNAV

Regarding `Clc1cc(Cl)cc(O[C@@H](C2CCOCC2)[C@@H]2CCNC2)c1` [Example 13-30, (R)-3-[(S)-(3,5-Dichlorophenoxy)(tetrahydropyran-4-yl)methyl]pyrrolidine], the IC50 in experiment [1] and in experiment [2] was at most 10 nM throughout. Moreover, the Ki in experiment [3] and in experiment [4] was at most 10 nM each time.
On to `Fc1cccc(O[C@@H](C2CCOCC2)[C@@H]2CCNC2)c1Cl` [Example 13-17, (R)-3-[(S)-(2-Chloro-3-fluorophenoxy)(tetrahydropyran-4-yl)methyl]pyrrolidine], for which the IC50 in experiment [1] and in experiment [2] was at most 10 nM each time. The Ki in experiment [3] and in experiment [4] was at most 10 nM throughout.
For the compound `COC[C@@H](Oc1cccc(Cl)c1C)[C@H]1CCNC1` [Example 4-15, (S)-3-[(S)-1-(3-Chloro-2-methylphenoxy)-2-methoxyethyl]pyrrolidine], the IC50 in experiment [1] was at most 100 nM; in experiment [2] it was at most 10 nM. The Ki in experiment [3] and in experiment [4] was at most 10 nM in each case.
For `COC[C@H](Oc1cccc(Cl)c1Cl)[C@H]1CCNC1` [Example 4-10], in experiment [1], the “SERT pIC50” value is on record as “≧8.0”. For the same compound, the “NET pIC50” value in experiment [2] is on record as “≧8.0”. Besides, the “SERT pKi” value in experiment [3] is “≧8.0”. For the same compound, the “NET pKi” value in experiment [4] is “≧8.0”.
Regarding `COC[C@H](Oc1cccc(Cl)c1C(F)(F)F)[C@H]1CCNC1` [Example 4-21, (S)-3-[(R)-1-(3-Chloro-2-trifluoromethylphenoxy)-2-methoxyethyl]pyrrolidine], the IC50 in experiment [1] is at most 100 nM; in experiment [2] it was at most 10 nM. Moreover, the Ki in experiment [3] and in experiment [4] was at most 10 nM throughout.
Regarding `Fc1cccc(O[C@H](C2CCOCC2)[C@@H]2CCNC2)c1Cl` [Example 13-16, (R)-3-[(R)-(2-Chloro-3-fluorophenoxy)(tetrahydropyran-4-yl)methyl]pyrrolidine], the figures for the IC50 in experiment [1] and in experiment [2] were at most 100 nM and at most 10 nM, respectively. Also, the Ki in experiment [3] and in experiment [4] was at most 10 nM each time.
In the case of `Clc1ccc(O[C@H](C2CCOCC2)[C@@H]2CCNC2)cc1` [Example 13-9, (R)-3-[(R)-(4-Chlorophenoxy)(tetrahydropyran-4-yl)methyl]pyrrolidine], the IC50 in experiment [1] and in experiment [2] was at most 10 nM throughout. The Ki in experiment [3] and in experiment [4] was at most 10 nM throughout.
Turning to `Clc1ccccc1O[C@@H](C1CCOCC1)[C@@H]1CCNC1` [Example 13-3, (R)-3-[(S)-(2-Chlorophenoxy)(tetrahydropyran-4-yl)methyl]pyrrolidine], the IC50 in experiment [1] was at most 100 nM; in experiment [2], at most 10 nM. Further, the Ki in experiment [3] and in experiment [4] was at most 10 nM throughout.
As for `Clc1cccc(O[C@H](C2CCOCC2)[C@@H]2CCNC2)c1Cl` [Example 13-13, (R)-3-[(R)-(2,3-Dichlorophenoxy)(tetrahydropyran-4-yl)methyl]pyrrolidine], the figures for the IC50 in experiment [1] and in experiment [2] were at most 100 nM and at most 10 nM, respectively. Besides, the Ki in experiment [3] and in experiment [4] was at most 10 nM throughout.
Regarding `COC[C@H](Oc1ccc(Cl)cc1C)[C@H]1CCNC1` [Example 4-25, (S)-3-[(R)-1-(4-Chloro-2-methylphenoxy)-2-methoxyethyl]pyrrolidine], the IC50 in experiment [1] and in experiment [2] was at most 10 nM each time. The Ki in experiment [3] and in experiment [4] was at most 10 nM in each case.
For `COCC(Oc1cccc(Cl)c1Cl)C1CCNC1` (stereo not drawn) [Example 4-5, 3-[1-(2,3-Dichlorophenoxy)-2-methoxyethyl]pyrrolidine], the IC50 in experiment [1] is at most 100 nM; in experiment [2], at most 10 nM. The Ki in experiment [3] and in experiment [4] was at most 10 nM in each case.
In the case of `COC[C@@H](Oc1cccc(Cl)c1Cl)[C@H]1CCNC1` [Example 4-9, (S)-3-[(S)-1-(2,3-Dichlorophenoxy)-2-methoxyethyl]pyrrolidine], the IC50 in experiment [1] and in experiment [2] was at most 10 nM throughout. The Ki in experiment [3] and in experiment [4] was at most 10 nM in each case.

The values are drawn from patent US8455665B2, “3-phenoxymethylpyrrolidine compounds” (Theravance, Inc., priority 2009, dated 2013).
